Earlier results as cited in Sander's compilation of Henry's law constants.

Assay: Henry solubility constant Hcp at 298.15 K (mol/(m3 Pa))
Settings: cited value
[1] = reference: Burkholder et al. (2015)
[2] = reference: Burkholder et al. (2019)
[3] = reference: Barcelo and Hennion (1997)
[4] = reference: Gaffney and Senum (1984)
[5] = reference: Sander et al. (2011)
[6] = reference: Fogg and Sangster (2003)

CCCCCCOC(C)=O [hexyl ethanoate]
Henry solubility constant Hcp (reference: Brockbank (2013)): 0.02

CC(O)C(C)O (configuration not stated) [2,3-butanediol]
Henry solubility constant Hcp [1]: 1100 | Henry solubility constant Hcp [2]: 1100

CC(C)CCC(C)C [2,5-dimethylhexane]
Henry solubility constant Hcp (reference: Brockbank (2013)): 3.1e-06

CCC(CC)Nc1c([N+](=O)[O-])cc(C)c(C)c1[N+](=O)[O-] [penoxaline]
Henry solubility constant Hcp [3]: 0.0026

CCCCOC(=O)c1ccccc1C(=O)OCCCC [dibutyl phthalate]
Henry solubility constant Hcp (reference: Brockbank (2013)): 11 | Henry solubility constant Hcp (reference: McCarty (1980)): 0.16

O=Cc1ccccc1 [benzaldehyde]
Henry solubility constant Hcp (reference: Brockbank (2013)): 0.4 | Henry solubility constant Hcp [4]: 0.36

O=C(O)CBr [bromoethanoic acid]
Henry solubility constant Hcp [1]: 1500 | Henry solubility constant Hcp [2]: 1500 | Henry solubility constant Hcp [5]: 1500

CC(C)=O [propanone]
Henry solubility constant Hcp (reference: Brockbank (2013)): 0.29 | Henry solubility constant Hcp [1]: 0.27 | Henry solubility constant Hcp [2]: 0.27 | Henry solubility constant Hcp (reference: Butler and Ramchandani (1935)): 0.3 | Henry solubility constant Hcp (reference: Cabani et al. (1981)): 0.27 | Henry solubility constant Hcp [6]: 0.26 | Henry solubility constant Hcp [4]: 0.3 | Henry solubility constant Hcp (reference: Hine and Weimar (1965)): 0.031 | Henry solubility constant Hcp (reference: Poulain et al. (2010)): 0.33 | Henry solubility constant Hcp (reference: Sander et al. (2006)): 0.28 | Henry solubility constant Hcp [5]: 0.27 | Henry solubility constant Hcp (reference: Schaffer and Daubert (1969)): 0.22

CC(C)N(C(=O)CCl)c1ccccc1 [propachlor]
Henry solubility constant Hcp [3]: 0.9

FC(F)F [trifluoromethane]
Henry solubility constant Hcp [1]: 0.00013 | Henry solubility constant Hcp [2]: 0.00013 | Henry solubility constant Hcp [5]: 0.00013

Clc1ccc(C(c2ccc(Cl)cc2)C(Cl)(Cl)Cl)cc1 [1,1,1-trichloro-2,2-bis-(4-chlorophenyl)-ethane]
Henry solubility constant Hcp [3]: 0.0042

CCCCCCCC#N [octanenitrile]
Henry solubility constant Hcp (reference: Plyasunov et al. (2006)): 0.057

OCC(F)(F)F [2,2,2-trifluoroethanol]
Henry solubility constant Hcp [1]: 0.47 | Henry solubility constant Hcp [2]: 0.47 | Henry solubility constant Hcp [5]: 0.47

CCCNCCC [dipropylamine]
Henry solubility constant Hcp (reference: Brockbank (2013)): 0.21 | Henry solubility constant Hcp [1]: 0.2 | Henry solubility constant Hcp [2]: 0.2

Clc1cccc(Cl)c1 [1,3-dichlorobenzene]
Henry solubility constant Hcp (reference: Brockbank (2013)): 0.0031 | Henry solubility constant Hcp [6]: 0.0034 | Henry solubility constant Hcp (reference: Goldstein (1982)): 0.0039

Clc1ccccc1-c1ccccc1Cl [2,2'-dichlorobiphenyl]
Henry solubility constant Hcp (reference: Murphy et al. (1983b)): 0.045

Brc1ccc(Oc2ccc(Br)cc2Br)c(Br)c1 [2,2',4,4'-tetrabromodiphenyl ether]
Henry solubility constant Hcp (reference: Wania and Dugani (2003)): 0.9

CNC(=O)Oc1ccccc1OC(C)C [propoxur]
Henry solubility constant Hcp [3]: 0.076

CCCCCCCCCCc1ccccc1 [decylbenzene]
Henry solubility constant Hcp (reference: Brockbank (2013)): 7.6e-05

Cc1cccc2ccccc12 [1-methylnaphthalene]
Henry solubility constant Hcp (reference: Brockbank (2013)): 0.02 | Henry solubility constant Hcp [6]: 0.022

CCCCCOC(=O)CCC [pentyl butanoate]
Henry solubility constant Hcp (reference: Brockbank (2013)): 0.017

Cc1cccnc1 [3-methylpyridine]
Henry solubility constant Hcp (reference: Brockbank (2013)): 1.2

O=C1CCCCC1 [cyclohexanone]
Henry solubility constant Hcp (reference: Brockbank (2013)): 1.5

CCCC1COC(Cn2cncn2)(c2ccc(Cl)cc2Cl)O1 (configuration not stated) [propiconazole]
Henry solubility constant Hcp [3]: 24

CN1CSC(=S)N(C)C1 [dazomet]
Henry solubility constant Hcp (reference: MacBean (2012b)): 37000

CNC(C)=O [N-methylacetamide]
Henry solubility constant Hcp [1]: 2100 | Henry solubility constant Hcp [2]: 2100

C=CC(=O)OCC [ethyl propenoate]
Henry solubility constant Hcp (reference: Brockbank (2013)): 0.039

CCCCCCN [1-hexanamine]
Henry solubility constant Hcp (reference: Brockbank (2013)): 0.35

CCc1ccccc1 [ethylbenzene]
Henry solubility constant Hcp (reference: Brockbank (2013)): 0.0013 | Henry solubility constant Hcp [6]: 0.0014 | Henry solubility constant Hcp (reference: Goldstein (1982)): 0.0016

CNC(=O)Oc1cccc2c1OC(C)(C)C2 [carbofuran]
Henry solubility constant Hcp [3]: 19

ClCC1CO1 (configuration not stated) [(chloromethyl)-oxirane]
Henry solubility constant Hcp (reference: Goldstein (1982)): 0.28

CCCCNCCCC [dibutylamine]
Henry solubility constant Hcp (reference: Brockbank (2013)): 0.13

CCCOCC [ethyl propyl ether]
Henry solubility constant Hcp (reference: Howard and Meylan (1997)): 0.0077

CC(=O)OC(C)C [2-propyl ethanoate]
Henry solubility constant Hcp (reference: Brockbank (2013)): 0.033
